Data reported in PubChem BioAssay (NCI).
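The concentration for 50% growth inhibition is given as GI50. TGI: concentration producing complete growth inhibition.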

Key:
Test in all cases: NCI-60 cell line screen, 384-well format
HT29 colon = tested on: HT29 colon
MDA-MB-468 breast = tested on: MDA-MB-468 breast
786-0 renal = tested on: 786-0 renal
SNB-19 CNS = tested on: SNB-19 CNS
BT-549 breast = tested on: BT-549 breast
OVCAR-5 ovarian = tested on: OVCAR-5 ovarian
TK-10 renal = tested on: TK-10 renal
UO-31 renal = tested on: UO-31 renal
K-562 leukemia = tested on: K-562 leukemia
ACHN renal = tested on: ACHN renal
HS 578T breast = tested on: HS 578T breast
SK-MEL-28 melanoma = tested on: SK-MEL-28 melanoma
UACC-62 melanoma = tested on: UACC-62 melanoma
RPMI-8226 leukemia = tested on: RPMI-8226 leukemia
NCI/ADR-RES ovarian = tested on: NCI/ADR-RES ovarian
MALME-3M melanoma = tested on: MALME-3M melanoma
HCT-116 colon = tested on: HCT-116 colon
EKVX NSCLC = tested on: EKVX NSCLC
NCI-H460 NSCLC = tested on: NCI-H460 NSCLC
HL-60(TB) leukemia = tested on: HL-60(TB) leukemia
IGROV1 ovarian = tested on: IGROV1 ovarian
SR leukemia = tested on: SR leukemia
SK-OV-3 ovarian = tested on: SK-OV-3 ovarian
KM12 colon = tested on: KM12 colon
MCF7 breast = tested on: MCF7 breast
UACC-257 melanoma = tested on: UACC-257 melanoma
MDA-MB-231 breast = tested on: MDA-MB-231 breast
COLO 205 colon = tested on: COLO 205 colon
HCT-15 colon = tested on: HCT-15 colon
NCI-H226 lung = tested on: NCI-H226 lung
A498 renal = tested on: A498 renal
NCI-H522 lung = tested on: NCI-H522 lung
MOLT-4 leukemia = tested on: MOLT-4 leukemia
OVCAR-3 ovarian = tested on: OVCAR-3 ovarian
SK-MEL-2 melanoma = tested on: SK-MEL-2 melanoma
T-47D breast = tested on: T-47D breast
RXF 393 renal = tested on: RXF 393 renal
SN12C renal = tested on: SN12C renal
HCC-2998 colon = tested on: HCC-2998 colon
LOX IMVI melanoma = tested on: LOX IMVI melanoma
DU-145 prostate = tested on: DU-145 prostate
CCRF-CEM leukemia = tested on: CCRF-CEM leukemia
SF-268 CNS = tested on: SF-268 CNS
OVCAR-4 ovarian = tested on: OVCAR-4 ovarian
OVCAR-8 ovarian = tested on: OVCAR-8 ovarian
NCI-H322M lung = tested on: NCI-H322M lung
PC-3 prostate = tested on: PC-3 prostate
SW-620 colon = tested on: SW-620 colon
SNB-75 CNS = tested on: SNB-75 CNS
A549 NSCLC = tested on: A549 NSCLC
CAKI-1 renal = tested on: CAKI-1 renal
HOP-92 NSCLC = tested on: HOP-92 NSCLC
HOP-62 NSCLC = tested on: HOP-62 NSCLC
SK-MEL-5 melanoma = tested on: SK-MEL-5 melanoma
SF-295 CNS = tested on: SF-295 CNS
MDA-MB-435 melanoma = tested on: MDA-MB-435 melanoma
U251 glioblastoma = tested on: U251 glioblastoma
SF-539 CNS = tested on: SF-539 CNS

## CCOc1cc(-c2nncn2C)ccc1Nc1ncc2cc(C)nc(NCC(C)(C)C)c2n1
HT29 colon
  GI50: > 100 µM
  TGI: > 100 µM
MDA-MB-468 breast
  GI50: 0.578 µM
  TGI: 7.02 µM
786-0 renal
  GI50: 0.468 µM
  TGI: > 100 µM
SNB-19 CNS
  GI50: 86.7 µM
  TGI: > 100 µM
BT-549 breast
  GI50: 0.85 µM
  TGI: > 100 µM
OVCAR-5 ovarian
  GI50: 1.33 µM
  TGI: > 100 µM
TK-10 renal
  GI50: 3.89 µM
  TGI: > 100 µM
UO-31 renal
  GI50: 0.514 µM
  TGI: > 100 µM
K-562 leukemia
  GI50: 0.918 µM
  TGI: > 100 µM
ACHN renal
  GI50: 1.77 µM
  TGI: > 100 µM
HS 578T breast
  GI50: 0.188 µM
  TGI: > 100 µM
SK-MEL-28 melanoma
  GI50: > 100 µM
  TGI: > 100 µM
UACC-62 melanoma
  GI50: > 100 µM
  TGI: > 100 µM
RPMI-8226 leukemia
  GI50: 0.3 µM
  TGI: 3.77 µM
NCI/ADR-RES ovarian
  GI50: 0.618 µM
  TGI: > 100 µM
MALME-3M melanoma
  GI50: 37.1 µM
  TGI: > 100 µM
HCT-116 colon
  GI50: 0.062 µM
  TGI: > 100 µM
EKVX NSCLC
  GI50: 2.05 µM
  TGI: > 100 µM
NCI-H460 NSCLC
  GI50: 0.169 µM
  TGI: > 100 µM
HL-60(TB) leukemia
  GI50: 0.266 µM
  TGI: 0.587 µM
IGROV1 ovarian
  GI50: > 100 µM
  TGI: > 100 µM
SR leukemia
  GI50: 0.139 µM
  TGI: 0.333 µM
SK-OV-3 ovarian
  GI50: > 100 µM
  TGI: > 100 µM
KM12 colon
  GI50: 0.0967 µM
  TGI: > 100 µM
MCF7 breast
  TGI: > 100 µM
UACC-257 melanoma
  GI50: > 100 µM
  TGI: > 100 µM
MDA-MB-231 breast
  GI50: 47.8 µM
  TGI: > 100 µM
COLO 205 colon
  GI50: 0.196 µM
  TGI: > 100 µM
HCT-15 colon
  GI50: 0.0738 µM
  TGI: > 100 µM
NCI-H226 lung
  GI50: 15.9 µM
  TGI: > 100 µM
A498 renal
  GI50: 0.548 µM
  TGI: > 100 µM
NCI-H522 lung
  GI50: 0.669 µM
  TGI: > 100 µM
MOLT-4 leukemia
  GI50: 0.0223 µM
  TGI: 0.0463 µM
OVCAR-3 ovarian
  GI50: 0.969 µM
  TGI: > 100 µM
SK-MEL-2 melanoma
  GI50: > 100 µM
  TGI: > 100 µM
T-47D breast
  GI50: 7.93 µM
  TGI: > 100 µM
RXF 393 renal
  GI50: 1.34 µM
  TGI: 99.1 µM
SN12C renal
  GI50: > 100 µM
  TGI: > 100 µM
HCC-2998 colon
  GI50: > 100 µM
  TGI: > 100 µM
LOX IMVI melanoma
  GI50: 0.179 µM
  TGI: > 100 µM
DU-145 prostate
  GI50: 0.365 µM
  TGI: > 100 µM
CCRF-CEM leukemia
  GI50: 0.0772 µM
  TGI: 0.278 µM
SF-268 CNS
  GI50: 10.5 µM
  TGI: > 100 µM
OVCAR-4 ovarian
  GI50: > 100 µM
  TGI: > 100 µM
OVCAR-8 ovarian
  GI50: 0.377 µM
  TGI: > 100 µM
NCI-H322M lung
  GI50: > 100 µM
  TGI: > 100 µM
PC-3 prostate
  GI50: 18 µM
  TGI: > 100 µM
SW-620 colon
  GI50: 0.304 µM
  TGI: > 100 µM
SNB-75 CNS
  GI50: > 100 µM
  TGI: > 100 µM
A549 NSCLC
  GI50: 0.0992 µM
  TGI: > 100 µM
CAKI-1 renal
  GI50: > 100 µM
  TGI: > 100 µM
HOP-92 NSCLC
  GI50: > 100 µM
  TGI: > 100 µM
HOP-62 NSCLC
  GI50: 0.23 µM
  TGI: > 100 µM
SK-MEL-5 melanoma
  GI50: 0.461 µM
  TGI: > 100 µM
SF-295 CNS
  GI50: > 100 µM
  TGI: > 100 µM
MDA-MB-435 melanoma
  GI50: > 100 µM
  TGI: > 100 µM
U251 glioblastoma
  GI50: 0.46 µM
  TGI: > 100 µM
SF-539 CNS
  GI50: 0.351 µM
  TGI: > 100 µM
